Where a name gives a salt, the structure may show the parent alone.

This assay deals with T1, FLT3 (Homo sapiens, UniProt P36888).
T1 construct: expressed in transfected cells; host or cells: HEK293T
T1 sequence (P36888 27-993): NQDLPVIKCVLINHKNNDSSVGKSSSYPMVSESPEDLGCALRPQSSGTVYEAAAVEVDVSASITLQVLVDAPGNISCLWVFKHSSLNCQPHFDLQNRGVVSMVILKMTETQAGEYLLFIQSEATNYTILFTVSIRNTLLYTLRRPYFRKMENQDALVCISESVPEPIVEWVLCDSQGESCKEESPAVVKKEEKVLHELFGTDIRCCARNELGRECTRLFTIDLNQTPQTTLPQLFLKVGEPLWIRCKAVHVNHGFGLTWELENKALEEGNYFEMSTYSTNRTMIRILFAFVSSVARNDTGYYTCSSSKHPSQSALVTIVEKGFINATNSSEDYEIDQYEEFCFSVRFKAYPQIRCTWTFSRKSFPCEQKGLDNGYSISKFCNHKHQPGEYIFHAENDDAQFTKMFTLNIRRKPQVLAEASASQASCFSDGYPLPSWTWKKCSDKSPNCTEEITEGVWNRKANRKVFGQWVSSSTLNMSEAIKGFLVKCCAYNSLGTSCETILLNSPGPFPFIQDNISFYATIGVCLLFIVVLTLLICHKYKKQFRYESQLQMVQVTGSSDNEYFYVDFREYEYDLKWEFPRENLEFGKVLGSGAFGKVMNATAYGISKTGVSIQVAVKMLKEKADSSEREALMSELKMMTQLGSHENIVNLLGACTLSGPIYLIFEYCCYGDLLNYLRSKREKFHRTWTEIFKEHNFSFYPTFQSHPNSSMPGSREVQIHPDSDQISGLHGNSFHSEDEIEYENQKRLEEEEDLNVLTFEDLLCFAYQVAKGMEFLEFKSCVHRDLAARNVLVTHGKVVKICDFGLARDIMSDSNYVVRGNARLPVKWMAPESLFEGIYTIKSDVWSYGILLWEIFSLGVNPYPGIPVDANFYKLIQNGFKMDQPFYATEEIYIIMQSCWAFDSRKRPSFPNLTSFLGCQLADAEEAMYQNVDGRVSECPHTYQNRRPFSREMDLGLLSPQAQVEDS
Kind of assay: HTRF binding assay of FL to FLT3 (TR-FRET, SNAP-FLT3 transfected HEK293T cells). As to conditions: HEK293T cells transfected with SNAP-FLT3, labelled with SNAP-Lumi4-Tb; compounds 1 h at room temperature, then FL-d2 (0.5 nM), read after 20 h; 12 dilutions in triplicates, performed twice; read-out: Inhibition of FLT3 binding IC50, binding. The procedure:
The binding of FL to FLT3 was measured by a Homologous Time-Resolved Fluorescence (HTRF) assay (Degorce et al., Current Chemical Genomics, 2009, 3, 22-32), which involves resonance energy transfer between a donor, Lumi4-Tb-donor-derivatized benzylguanine substrate (SNAP-Lumi4-Tb, excitation: 337 nm, emission: 630 nm, Cisbio, France), transfected in HEK cells, and an acceptor, red fluorescent FL (FL-d2, excitation: 620 nm, emission: 660 nm, Cisbio, France). When FL-d2 binds to the SNAP-Lumi4-Tb-tagged FLT3 receptor, the proximity of both fluorophores allows the time-resolved Förster resonance energy transfer (TR-FRET) signal to occur and the binding is measured as the ratio between the fluorescent emissions at 660 to 620 nm.
The detailed method is described in Rivat et al. (Nature Communications, 2018, 9 :1042). Briefly, HEK293T cells were transfected with a pCDNA3.1 SNAP-FLT3 plasmid by using Lipofectamine (Invitrogen), and were than labelled with SNAP-Lumi4-Tb. Plates containing attached transfected HEK293T cells were incubated with compounds of formula (I) for 1 h at room temperature. A series of 12 dilutions in triplicates was used for each compound and the experiment was performed twice. Then FL-d2 (0.5 nM) was added and the TR-FRET signal was read after 20 h incubation at room temperature with a HTRF-compatible reader (Envision, Perkin Elmer) allowing a donor excitation at 337 nm and a signal collection both at 615 nm and 665 nm (20 flashes, delay 50 µs, integration time 400 µs). Then HTRF ratio, obtained by dividing the acceptor signal (665 nm) by the donor signal (615 nm), was calculated at each concentration of test compounds. Non-specific binding was measured in the presence 50 µM of BDT001 (Rivat et al., ibid.). Concentration giving 50 % inhibition (IC50) were calculated by non-linear regression analysis for a one-site model, with variable slope (Prism®, Graphpad software, USA).
Take `CN(C)CCOc1ccc(C(=O)Nc2cccc3ccncc23)cc1C#N` [(36), 3-cyano-4-(2-(dimethylamino)ethoxy)-N-(isoquinolin-8-yl)benzamide]: the 50% inhibitory concentration (IC50) came out at 2.5 µM.

For `CN1CCN(c2ccc(C(=O)Nc3ccc(F)c4nccnc34)cc2)CC1` [(37), N-(8-fluoroquinoxalin-5-yl)-4-(4-methylpiperazin-1-yl)benzamide], the IC50 amounted to 0.7 µM.

As for `CN1CCN(c2ccc(C(=O)Nc3cccc4ccncc34)cc2)CC1` [(38), N-(isoquinolin-8-yl)-4-(4-methylpiperazin-1-yl)benzamide], the 50% inhibitory concentration (IC50) was determined as 0.6 µM.

Regarding `CN1CCN(c2ccc(C(=O)Nc3cccc4cnccc34)cc2)CC1` [(39), N-(isoquinolin-5-yl)-4-(4-methylpiperazin-1-yl)benzamide], the IC50 was 0.8 µM.

On to `CN1CCN(c2ccc(C(=O)Nc3cccc4ncccc34)cc2)CC1` [(40), 4-(4-methylpiperazin-1-yl)-N-(quinolin-5-yl)benzamide], for which the IC50 came out at 1.7 µM.

As to `CN1CCN(c2ccc(C(=O)Nc3cccc4nccnc34)cc2)CC1` [(41), 4-(4-methylpiperazin-1-yl)-N-(quinoxalin-5-yl)benzamide], the IC50 turned out to be 0.6 µM.

For the compound `CN1CCN(c2ccc(C(=O)Nc3ccc(F)c4cccnc34)cc2)CC1` [(42), N-(5-fluoroquinolin-8-yl)-4-(4-methylpiperazin-1-yl)benzamide], the IC50 was determined as 3.1 µM.

As to `Cc1cc(C(=O)Nc2cccc3cccnc23)ccc1OCCN(C)C` [(43), 4-(2-(dimethylamino)ethoxy)-3-methyl-N-(quinolin-8-yl)benzamide], the IC50 came to 2.1 µM.

For `CN1CCN(c2ccc(C(=O)Nc3ccc(F)c4ncccc34)cc2)CC1` [(44), N-(8-fluoroquinolin-5-yl)-4-(4-methylpiperazin-1-yl)benzamide], the IC50 came to 3.8 µM.

`Cc1cc(N2CCN(C)CC2)ccc1C(=O)Nc1cccc2cnccc12` [(45), N-(isoquinolin-5-yl)-2-methyl-4-(4-methylpiperazin-1-yl)benzamide]: the half-maximal inhibitory concentration (IC50) came to 1 µM.

Take `CN1CCN(c2ccc(C(=O)Nc3ccc(Cl)c4ncccc34)cc2)CC1` [(46), N-(8-chloroquinolin-5-yl)-4-(4-methylpiperazin-1-yl)benzamide]: the IC50 was 1 µM.

`Cc1cc(OCCN(C)C)ccc1C(=O)Nc1cccc2ncccc12` [(47), 4-(2-(dimethylamino)ethoxy)-2-methyl-N-(quinolin-5-yl)benzamide]: the IC50 was 1.7 µM.

Turning to `CN(C)CCOc1ccc(C(=O)Nc2cccc3cnccc23)cc1C(F)(F)F` [(48), 4-(2-(dimethylamino)ethoxy)-N-(isoquinolin-5-yl)-3-(trifluoromethyl)benzamide], the concentration for half-maximal inhibition (IC50) was 1.3 µM.

In the case of `CN(C)CCOc1ccc(C(=O)Nc2cccc3ncccc23)c(C(F)(F)F)c1` [(49), 4-(2-(dimethylamino)ethoxy)-N-(quinolin-5-yl)-2-(trifluoromethyl)benzamide], the IC50 was 2.4 µM.

In the case of `COc1cc(C(=O)Nc2cccc3ncccc23)ccc1N1CCN(C)CC1` [(50), 3-methoxy-4-(4-methylpiperazin-1-yl)-N-(quinolin-5-yl)benzamide], the half-maximal inhibitory concentration (IC50) is 2.3 µM.

Consider `CN1CCN(c2ccc(C(=O)Nc3ccc(Cl)c4cnccc34)cc2)CC1` [(51), N-(8-chloroisoquinolin-5-yl)-4-(4-methylpiperazin-1-yl)benzamide hydrochloride], for which the 50% inhibitory concentration (IC50) was 1.3 µM.

For the compound `CN1CCN(c2ccc(C(=O)Nc3ccc(C(F)(F)F)c4ccncc34)cc2)CC1` [(52), 4-(4-methylpiperazin-1-yl)-N-[5-(trifluoromethyl)isoquinolin-8-yl]benzamide hydrochloride], the IC50 was found to be 7.5 µM.

As a reminder, the IC50 is the concentration that inhibits the measured activity by half.
